Measured values reported in patent publication US12115178B2, “Acylated active agents and methods of their use for the treatment of autoimmune disorders” (Flagship Pioneering Innovations V, Inc., priority 2018, dated 2024).

Legend:
[1] = system: Primary Human Peripheral Blood Mononuclear Cells (PBMCs); assay: Inflammatory signals in LPS-treated primary human PBMCs; type: cell-based; conditions: 100 uM, 24 hours
Description: Human donor blood (8 mL) was collected in sodium citrate CPT tubes and centrifuged at 1,600×g for 20 minutes at room temperature. Buffy coat containing PBMCs was collected and transferred to a 50 mL conical tube containing 30 mL of RPMI-1640 medium at room temperature (supplemented with penicillin-streptomycin). PBMCs samples were centrifuged at 400×g for 10 minutes at 10° C. The pelleted PBMCs were washed twice in 10 ml of RPMI-1640 medium (supplemented with penicillin-streptomycin), then resuspended in RPMI-1640 medium (supplemented with penicillin-streptomycin, fetal bovine serum, and L-Glutamine). PBMCs were filtered through a 70 micron mesh to remove any cellular debris. […] PBMCs in a 96-well plate were rested for 30 minutes in a 37° C., 5% CO2 incubator, then subsequently treated with 10 μl of indicated compound. After 2 hours 10 μL of LPS (O111:B4) 1 mg/mL was added to test wells. After 24 hours of incubation at 37° C., 5% CO2, 100 μL of cell supernatant was collected and transferred to a 96-well plate (non-tissue treated, flat bottom). The plate was centrifuged at 350×g for 5 minutes at room temperature, and then the clear supernatant transferred to a new 96-well plate (non-tissue treated, flat bottom). The remaining cells were tested for viability using CellTiter-Glo® Luminescent Cell Viability Assay (Promega). The supernatant was analyzed for TNFα, IL-6 and […] Systems), using Luminex Immunoassay Technology (MAGPIX System). Cytokine levels of LPS treated DMSO control samples were set to 100%, and compound treated samples were expressed relative to this (Table 3).

naïve CD4+ T cells = assay: Human regulatory T cell differentiation assay; type: cell-based; conditions: 6 days
Description: Peripheral blood mononuclear cells (PBMCs) from whole blood donated by health volunteers were separated by Ficoll-Paque gradient centrifugation and naïve CD4^+ T cells were subsequently isolated using magnet beads (EasySep™ Human Naïve CD4^+ T Cell Isolation Kit, Cambridge, MA). For regulatory T cell (Treg) differentiation assay, naïve CD4^+ T cells were cultured (1-10×10^4 cells) in CTS OpTmizer medium for 6 days and stimulated with 5 ng/ml TGF-β, 100 U/ml IL-2, and ImmunoCult™ Human […] T Cell Activator; Stemcell #10990) with/without our Compounds. Cell viability was determined using a viability dye (eBioscience Fixable Viability Dye eFluor 780: ThermoFisher 65-0865-14) at 1:500 dilution. The cells were gated for Treg, defined as Live, CD11c^−, CD14^−, CD19^−, CD8^−, CD4^+, CD3^+, CD25^+, FOXP3^+. Percent (%) Tregs were calculated as percentage of CD4^+, CD25^+, FOXP3^+ cells over total CD4 T cells. Statistical analysis was performed with GraphPad Prism Software Using One-Way ANOVA.

neutrophil = assay: Neutrophil chemokine production assay; type: cell-based, human; conditions: 12 h
Description: A volume 25 mL of human blood was layered over 15 mL of Histopaque®-1077 and centrifuged at 500 g, RT, for 30 min with no break applied to the centrifuge. The PBMC band and Histopaque®-1077 layer were removed leaving behind the bottom red layer which was mixed with 40 mL of 1× red blood cell (RBC) lysis buffer (Sigma-Aldrich) was and split into two 50 mL tubes. The volume for both fractions was brought to 50 mL with RBC lysis buffer, mixed by inversion, and then incubated at RT for 10 min. Solutions were centrifuged at 250 g, for 10 min at RT and the supernatant liquids removed. The reddish pellets were re-suspended in 1 mL of RBC lysis buffer and combined. The cell suspension was incubated for 5 min at RT in RBC lysis buffer. After incubation 45 mL of Hanks Balanced Salt Solution with no calcium, magnesium or phenol red (HBSS−) was added, the cell suspension was spun (250 g for 10 min at RT), and supernatant liquids were removed. The white pellet was re-suspended in 1 mL of HBSS−, and cell counts were determined. The neutrophil cell suspension was brought to a concentration of 1.11e6 cells/mL in RPMI complete (Sigma-Aldrich), and 180 μL of cell suspension was transferred to all wells within a sterile 96-well tissue culture treated plate resulting in 2.0e5 cells/well. […] After incubation, 10 μL of 2 μg/mL LPS solution in RPMI complete was added to each well except for control wells, which received an additional 10 μL of media. Cells were incubated for 12 h (37° C., 5% CO2), after which plates were centrifuged at 250 g, RT, for 5 min and supernatant liquids were obtained and stored at −80° C. until analyzed via Luminex® Multiplex Assay for various chemokines and cytokines. Three data points were acquired from two different blood donors and averaged.

AhR = AhR activation in Caco-2 cells through CYP1A1 mRNA expression; conditions: overnight
Description: Caco-2 cells from American Type Culture Collection (ATCC) were plated in a sterile tissue culture treated 96-well plate (ThermoFisher) at […], and grown overnight at 37° C., 5% CO2 in DMEM complete (Gibco) in order to achieve confluence. After the incubation medium was aspirated off of the Caco-2 monolayers, tissues were then washed with 200 μL of warmed PBS solution, and subsequently 190 μL of pre-warmed growth medium was added to each well. Compounds of interest were diluted at a 20× concentration in growth medium containing 2% DMSO, and 10 μL of compound solutions were added to respective wells in triplicate. Compounds where incubated overnight at 37° C., 5% CO2. 2-(1′H-indole-3′-carbonyl)-thiazole-4-carboxylic acid methyl ester (ITE) was used as the positive control for AhR activation at 1 and 100 μM concentrations. At the end of the incubation, medium was aspirated off of the Caco-2 cells, and the cells washed with 100 μL of cold PBS solution. RNA was extracted via the TaqMan™ Gene Expression Cells-to-CT™ Kit (ThermoFisher) according to the manufacturers protocol. The QuantStudio 6 Flex (Applied Biosciences) was used to analyze mRNA levels of CYP1A1 using GAPDH as the endogenous control. TaqMan™ probe sets for both genes were acquired from ThermoFisher. Samples were run in triplicate and data was analyzed using the QuantStudio software and reported as linear (Table 1) and log 2(ΔΔCT) values. Statistical analysis was performed using a two-tailed t-test comparing CYP1A1 levels in the presence of each individual compound to the vehicle negative control.

[2] = system: type II collagen arthritis; assay: In vivo rheumatoid arthritis model (semi-established type II collagen arthritis); set-up: species or system Lewis rats; conditions: 420 mg/kg PO BID, rats
Description: A study was conducted to determine the efficacy of test articles dosed by the oral (PO) route for inhibition of the inflammation (paw swelling), cartilage destruction, and bone resorption that occurs in semi-established type II collagen arthritis in female Lewis rats. Rats (10 per group) were injected intradermally (ID) with porcine type II collagen to induce arthritis; one group of rats (4 per group) served as vehicle-treated naïve controls. […] Positive controls were treated PO, BID with the reference compound Tofacitinib citrate (10 mg/kg). The rats were euthanized for necropsy on study day 21 (animals #1-5 in each group, animals #1-2 in naïve group) or 22 (animals #6-10 in each group, animals #3-4 in naïve group). Efficacy evaluation was based on animal body weights (Table 9), daily ankle caliper measurements (FIG. 4), ankle diameter expressed as area under the curve (AUC) (Table 10), terminal hind paw weights (Table 11), histopathologic evaluation of hind paws (Ankle Inflammation score: Table 12, Ankle Pannus score: Table 13, Ankle Cartilage Damage score: Table 14, Ankle Bone Resorption score: Table 15, Ankle Periosteal Bone score: Table 16, Ankle Periosteal Bone Width: Table 17) and knees (Knee Inflammation score: Table 18, Knee Pannus score: Table 19, Knee Cartilage Damage score: Table 20, Knee Bone Resorption score: Table 21), and relative spleen to body weight ratio (Table 22). Terminal serum was analyzed by enzyme-linked immunosorbent assay (ELISA) for anti-type II collagen antibodies (IgG) (Table 23). […] Statistics were conducted using ordinary one-way ANOVA with Dunnett's multiple comparison correction in GraphPad Prism.

SMILES: O=C[C@H](O)[C@@H](O)[C@@H](O)CO [L-arabinose]
- IL1β % DMSO control [1]: = ((=) 90%> <110% DMSO)
- IL6 % DMSO control [1]: + ((+) 50%> <90% DMSO)
- TNFα % of DMSO control [1]: + ((+) 50%> <90% DMSO)
- Cell viability % DMSO (naïve CD4+ T cells; 0.5 mM): = (90%> <110%: =)
- Cell viability % DMSO (naïve CD4+ T cells; 1 mM): = (90%> <110%: =)
- % IL-8 (Vehicle + LPS = 100%) (neutrophil; 500.0 μM): − (− = >90% Vehicle)
- % MIP-1α (Vehicle + LPS = 100%) (neutrophil; 500.0 μM): − (− = >90% Vehicle)
- % MIP-1β (DMSO + LPS = 100%) (neutrophil; 500.0 μM): − (− = >90% Vehicle)
- % IL-8 (Vehicle + LPS = 100%) (neutrophil; 1000.0 μM): − (− = >90% Vehicle)
- % MIP-1α (Vehicle + LPS = 100%) (neutrophil; 1000.0 μM): − (− = >90% Vehicle)
- % MIP-1β (DMSO + LPS = 100%) (neutrophil; 1000.0 μM): − (− = >90% Vehicle)

SMILES: COC(=O)c1csc(C(=O)c2c[nH]c3ccccc23)n1 [ITE, 2-(1′H-indole-3′-carbonyl)-thiazole-4-carboxylic acid methyl ester]
- Average CYP1A1 mRNA levels (AhR; 1.0 μM): +++ (+++ = >10-fold Vehicle)

SMILES: CCCC(=O)O [Butyric acid, reference compound]
- Cell viability % DMSO (naïve CD4+ T cells; 3 mM): − (<90%: −)
- Mean Ankle Diameter AUC (mm*day) [2]: 92.46 mm*day
- Mean Ankle Periosteal Bone width (um) [2]: 573.30 um
- Mean Knee Inflammation score (0-5) [2]: 4.83
- Mean Terminal hind paw weights [2]: 2.4759 g
- Mean body weight change, day −1 to 21 (%) [2]: −2.3%
- Relative Spleen to Body Weight (Mean) [2]: 0.2416
- Mean Ankle Bone Resorption score (0-5) ([2]; 0 = normal, 5 = severe): 2.95
- Mean Ankle Cartilage Damage score (0-5) ([2]; 0 = normal, 5 = severe): 3.80
- Mean Ankle Pannus score (0-5) ([2]; 0 = normal, 5 = severe): 2.95
- Mean Ankle Periosteal Bone score (0-5) ([2]; 0 = normal, 5 = severe): 3.08
- Mean Ankle inflammation score (0-5) ([2]; 0 = normal, 5 = severe): 2.4759
- Mean Knee Bone Resorption score (0-5) ([2]; 0 = normal, 5 = severe): 2.43
- Mean Knee Cartilage Damage score (0-5) ([2]; 0 = normal, 5 = severe): 3.28
- Mean Knee Pannus score (0-5) ([2]; 0 = normal, 5 = severe): 2.43
- Serum IgG ([2]; terminal serum ELISA for anti-type II collagen antibodies): 5824.57 µg/mL

SMILES: CCC(=O)O [propionate]
- IL1β % DMSO control [1]: + ((+) 50%> <90% DMSO)
- % IL-8 (Vehicle + LPS = 100%) (neutrophil; 500.0 μM): − (− = >90% Vehicle)
- % MIP-1α (Vehicle + LPS = 100%) (neutrophil; 500.0 μM): +++ (+++ = <50% Vehicle)
- % MIP-1β (DMSO + LPS = 100%) (neutrophil; 500.0 μM): +++ (+++ = <50% Vehicle)
- % IL-8 (Vehicle + LPS = 100%) (neutrophil; 1000.0 μM): ++ (++ = <70%Vehicle)
- % MIP-1α (Vehicle + LPS = 100%) (neutrophil; 1000.0 μM): +++ (+++ = <50% Vehicle)
- % MIP-1β (DMSO + LPS = 100%) (neutrophil; 1000.0 μM): +++ (+++ = <50% Vehicle)
- % IL-8 (Vehicle + LPS = 100%) (neutrophil; 3000.0 μM): +++ (+++ = <50% Vehicle)
- % MIP-1α (Vehicle + LPS = 100%) (neutrophil; 3000.0 μM): +++ (+++ = <50% Vehicle)
- % MIP-1β (DMSO + LPS = 100%) (neutrophil; 3000.0 μM): +++ (+++ = <50% Vehicle)

SMILES: Cn1cc(C[C@H](N)C(=O)O)c2ccccc21 [1-methylindole-3-alanine]
- Average CYP1A1 mRNA levels (AhR; 10.0 μM): + (+ = >2-fold Vehicle)
- Average CYP1A1 mRNA levels (AhR; 100.0 μM): +++ (+++ = >10-fold Vehicle)

SMILES: c1ccc2[nH]ccc2c1 [indole]
- Average CYP1A1 mRNA levels (AhR; 1000.0 μM): + (+ = >2-fold Vehicle)

SMILES: OCc1c[nH]c2ccccc12 [indole-3-carbinol]
- Average CYP1A1 mRNA levels (AhR; 1000.0 μM): + (+ = >2-fold Vehicle)

SMILES: O=C(O)c1ccccc1 [Benzoic acid]
- Average CYP1A1 mRNA levels (AhR; 10.0 μM): + (+ = >2-fold Vehicle)
- Average CYP1A1 mRNA levels (AhR; 100.0 μM): + (+ = >2-fold Vehicle)

SMILES: CC(O)CCO (stereo not shown) [butanediol, 1,3-butanediol]
- IL1β % DMSO control [1]: = ((=) 90%> <110% DMSO)
- Average CYP1A1 mRNA levels (AhR; 500.0 μM): − (- = <2-fold Vehicle)
- % IL-8 (Vehicle + LPS = 100%) (neutrophil; 100.0 μM): − (− = >90% Vehicle)
- % MIP-1α (Vehicle + LPS = 100%) (neutrophil; 100.0 μM): − (− = >90% Vehicle)
- % MIP-1β (DMSO + LPS = 100%) (neutrophil; 100.0 μM): + (+ = <90% Vehicle)
- % IL-8 (Vehicle + LPS = 100%) (neutrophil; 500.0 μM): − (− = >90% Vehicle)
- % MIP-1α (Vehicle + LPS = 100%) (neutrophil; 500.0 μM): − (− = >90% Vehicle)
- % MIP-1β (DMSO + LPS = 100%) (neutrophil; 500.0 μM): + (+ = <90% Vehicle)

SMILES: O=c1c(O)c(-c2ccc(O)c(O)c2)oc2cc(O)cc(O)c12 [quercetin, reference compound]
- IL1β % DMSO control [1]: + ((+) 50%> <90% DMSO)
- Cell viability % DMSO (naïve CD4+ T cells; 100 nM): = (90%> <110%: =)
- Cell viability % DMSO (naïve CD4+ T cells; 1 uM): = (90%> <110%: =)
- % IL-8 (Vehicle + LPS = 100%) (neutrophil; 0.1 μM): − (− = >90% Vehicle)
- % MIP-1α (Vehicle + LPS = 100%) (neutrophil; 0.1 μM): − (− = >90% Vehicle)
- % MIP-1β (DMSO + LPS = 100%) (neutrophil; 0.1 μM): − (− = >90% Vehicle)
- % IL-8 (Vehicle + LPS = 100%) (neutrophil; 1.0 μM): − (− = >90% Vehicle)
- % MIP-1α (Vehicle + LPS = 100%) (neutrophil; 1.0 μM): − (− = >90% Vehicle)
- % MIP-1β (DMSO + LPS = 100%) (neutrophil; 1.0 μM): − (− = >90% Vehicle)
